Several values for one entry are separate records, joined by “and”; a condition that tells them apart may be missing. Identical values can stand only once.
For C1CNCCN1 [piperazine, anhydrous], which melting point is on record?
Its melting point is 110 °C.

Which melting point does the source give for CN1C(C(=O)Nc2ccccn2)=C(O)c2ccccc2S1(=O)=O [piroxicam] [listing 1 of 2 here] here?
The melting point was 198 °C.

For CN1C(C(=O)Nc2ccccn2)=C(O)c2ccccc2S1(=O)=O [piroxicam] [listing 2 of 2 here], which melting point is on record?
The melting point was 200 °C and 199 °C.

For O=C(CO)[C@@]3(O)CC[C@H]2[C@@H]4CC\C1=C\C(=O)\C=C/[C@]1(C)[C@H]4C(=O)C[C@@]23C [prednisone], which melting point is on record?
The melting point was 234 °C (2×) and 237 °C.

Which melting point does the source give for OC(CCN1CCCCC1)(c1ccccc1)c1ccccc1 [pridinol] here?
Its melting point is 120 °C.

Which melting point does the source give for CCC1(c2ccccc2)C(=O)NCNC1=O [primidone] here?
Its melting point is 282 °C.

For CCC1(C(C)C)C(=O)NC(=O)NC1=O [probarbital], which melting point is on record?
The melting point was 203 °C.

Which melting point does the source give for CCCN(CCC)S(=O)(=O)c1ccc(C(=O)O)cc1 [probenecid] here?
The melting point was 199 °C.

Which melting point does the source give for CCCN(CC1CC1)c1c([N+](=O)[O-])cc(C(F)(F)F)cc1[N+](=O)[O-] [profluralin] here?
Its melting point is 32.5 °C.

Which melting point does the source give for O=C4\C=C2/[C@]([C@H]1CC[C@@]3([C@@H](C(=O)C)CC[C@H]3[C@@H]1CC2)C)(C)CC4 [progesterone] here?
The melting point was 131 °C and 130 °C.

For C=C(Br)CC1(C(C)C)C(=O)NC(=O)NC1=O [propallylonal], which melting point is on record?
Its melting point is 177 °C.

Which melting point does the source give for CCC [propane] here?
The melting point was -188 °C.

For CCC(=O)OC(=O)CC [propionic anhydride], which melting point is on record?
The melting point was -44 °C.

With CCC#N [propionitrile] as the compound, how does the melting point read?
The melting point was -93 °C and -92 °C.

For CC(C)NCC(O)COc1cccc2ccccc12 (stereo not given) [propranolol], which melting point is on record?
The melting point was 129 °C.

Which melting point does the source give for CC(CP(=O)(O)O)P(=O)(O)O (stereo not given) [propylenediphosphonic acid] here?
The melting point was 178 °C.

Which melting point does the source give for ON=Cc1ccccn1 [pyridine-2-carboxaldoxime] here?
The melting point was 111 °C.

For NC(=S)c1ccccn1 [pyridine-2-thiocarboxamide], which melting point is on record?
Its melting point is 123 °C.

Which melting point does the source give for ON=Cc1ccncc1 [pyridine-4-carboxaldoxime] here?
The melting point was 132 °C.

Which melting point does the source give for c1cncnc1 [pyrimidine] here?
Its melting point is 21 °C.

With CC(=O)C(=O)O [pyruvic acid] as the compound, how does the melting point read?
Its melting point is 11.5 °C (2×) and 12 °C (2×) and 13.8 °C.

With C=C[C@H]1C[N@@]2CC[C@H]1C[C@@H]2[C@@H](O)c1ccnc2ccc(OC)cc12 [quinidine] [listing 1 of 2 here] as the compound, how does the melting point read?
Its melting point is 174 °C.

Which melting point does the source give for C=C[C@H]1C[N@@]2CC[C@H]1C[C@@H]2[C@@H](O)c1ccnc2ccc(OC)cc12 [quinidine] [listing 2 of 2 here] here?
The melting point was 170 °C.

Which melting point does the source give for C=C[C@H]1CN2CC[C@H]1C[C@H]2[C@H](O)c1ccnc2ccc(OC)cc12 [quinine] here?
Its melting point is 176 °C and 174 °C.

Which melting point does the source give for OB(O)c1cccc2ncccc12 [quinoline-5-boronic acid] here?
Its melting point is 146 °C.

Which melting point does the source give for c1ccc2nccnc2c1 [quinoxaline] here?
The melting point was 30 °C.

With c1cc(OCC2CO2)cc(OCC2CO2)c1 (stereo not given) [resorcinol diglycidyl ether] as the compound, how does the melting point read?
Its melting point is 34 °C.

With O=Cc1ccccc1O [salicylaldehyde] as the compound, how does the melting point read?
Its melting point is -7 °C.

With O/N=C/c1ccccc1O [salicylaldoxime] as the compound, how does the melting point read?
Its melting point is 57 °C.

For NC(=O)c1ccccc1O [salicylamide] [listing 1 of 2 here], which melting point is on record?
Its melting point is 142 °C.

Which melting point does the source give for NC(=O)c1ccccc1O [salicylamide] [listing 2 of 2 here] here?
Its melting point is 140 °C.

For O=C(O)c1ccccc1O [salicylic acid], which melting point is on record?
Its melting point is 157 °C.

Which melting point does the source give for Oc1ccccc1C=Nc1ccccc1 [salicylideneaniline] here?
The melting point was 50 °C.

For O=C(Oc1ccccc1C(=O)O)c1ccccc1O [salicylsalicylic acid], which melting point is on record?
Its melting point is 135 °C.

Which melting point does the source give for CCC(C)c1ccccc1 (stereo not given) [sec-butylbenzene] here?
Its melting point is -75 °C.

With Clc1ccc(C(Cn2ccnc2)OCc2csc3c(Cl)cccc23)c(Cl)c1 (stereo not given) [sertaconazole] as the compound, how does the melting point read?
The melting point was 146 °C.

Which melting point does the source give for COc1cc(/C=C/C(=O)O)cc(OC)c1O [sinapic acid] here?
The melting point was 195 °C.

For NCCCCNCCCN [spermidine], which melting point is on record?
The melting point was 24 °C.

With O=C1C[C@@H]2OCC=C3CN4CC[C@]56c7ccccc7N1[C@H]5[C@H]2[C@H]3C[C@H]46 [strychnine] as the compound, how does the melting point read?
Its melting point is 280 °C.

For OCC(O)c1ccccc1 (stereo not given) [styrene glycol], which melting point is on record?
The melting point was 68 °C.

With C=Cc1ccccc1 [styrene] as the compound, how does the melting point read?
The melting point was -31 °C.

Which melting point does the source give for O=C(O)CCCCCCC(=O)O [suberic_acid] here?
The melting point was 144 °C.

With O=C1CCC(=O)O1 [succinic anhydride] as the compound, how does the melting point read?
Its melting point is 120 °C.

Which melting point does the source give for OC[C@H]1O[C@@](CO)(O[C@H]2O[C@H](CO)[C@@H](O)[C@H](O)[C@H]2O)[C@@H](O)[C@@H]1O [sucrose] here?
The melting point was 188 °C.

With CC(=O)NS(=O)(=O)c1ccc(N)cc1 [sulfacetamide] as the compound, how does the melting point read?
The melting point was 183 °C.

With Nc1ccc(S(=O)(=O)Nc2ncccn2)cc1 [sulfadiazine] as the compound, how does the melting point read?
The melting point was 252 °C and 256 °C and 254 °C.

With COc1cc(NS(=O)(=O)c2ccc(N)cc2)nc(OC)n1 [sulfadimethoxine] as the compound, how does the melting point read?
The melting point was 204 °C.

For Cc1ccnc(NS(=O)(=O)c2ccc(N)cc2)n1 [sulfamerazine], which melting point is on record?
The melting point was 236 °C.

For Cc1cc(C)nc(NS(=O)(=O)c2ccc(N)cc2)n1 [sulfamethazine], which melting point is on record?
The melting point was 176 °C.

With Cc1noc(NS(=O)(=O)c2ccc(N)cc2)c1C [sulfisoxazole] as the compound, how does the melting point read?
Its melting point is 191 °C and 194 °C.

Which melting point does the source give for CCN1CCCC1CNC(=O)c1cc(S(N)(=O)=O)ccc1OC (stereo not given) [sulpiride] here?
Its melting point is 178 °C.

Which melting point does the source give for COc1cc(C(=O)O)cc(OC)c1O [syringic acid] here?
The melting point was 207 °C.

Which melting point does the source give for CCC(=C(c1ccccc1)c1ccc(OCCN(C)C)cc1)c1ccccc1 [tamoxifen] here?
Its melting point is 96 °C.

Which melting point does the source give for O=C(O)C(O)C(O)C(=O)O (stereo not given) [tartaric acid] here?
The melting point was 147 °C.

For CN1C(C(=O)Nc2ccccn2)=C(O)c2sccc2S1(=O)=O [tenoxicam], which melting point is on record?
The melting point was 211 °C.

Which melting point does the source give for CCNc1nc(NC(C)(C)C)nc(SC)n1 [terbutryn] here?
The melting point was 105 °C.

Which melting point does the source give for CCNc1nc(NC(C)(C)C)nc(SC)n1 [terbutryne] here?
Its melting point is 104 °C.

For O=Cc1ccc(C=O)cc1 [terephthalaldehyde], which melting point is on record?
The melting point was 116 °C.

With O=Cc1ccc(C=O)cc1 [terephthaldicarboxaldehyde] as the compound, how does the melting point read?
The melting point was 116 °C.

With CC(C)(C)OC(=O)C(C(=O)Cc1ccccc1)c1ccccc1 (stereo not given) [tert-butyl 3-oxo-2,4-diphenylbutanoate] as the compound, how does the melting point read?
Its melting point is 83 °C.

Which melting point does the source give for CCOC(C)(C)C [tert-butyl ethyl ether] here?
The melting point was -94 °C.

For COC(C)(C)C [tert-butyl methyl ether], which melting point is on record?
Its melting point is -109 °C.

With CC12CCC(=O)C=C1CCC1C2CCC2(C)C(O)CCC12 (stereo not given) [testosterone] as the compound, how does the melting point read?
Its melting point is 153 °C.

For CCCCCCCCCCCCCC [tetradecane], which melting point is on record?
The melting point was 6 °C.

With CCCCCCCCCCCCCC(=O)O [tetradecanoic acid] as the compound, how does the melting point read?
Its melting point is 55 °C.

For CCN(CC)C(=S)SSC(=S)N(CC)CC [tetraethylthiuram disulfide], which melting point is on record?
Its melting point is 71 °C.

Which melting point does the source give for C1CCSC1 [tetrahydrothiophene] here?
The melting point was -96 °C.

For CC(C)OP(=O)(CCP(=O)(OC(C)C)OC(C)C)OC(C)C [tetraisopropyl 1,2-ethylenediphosphonate], which melting point is on record?
Its melting point is 36 °C.

Which melting point does the source give for CCCCCCCCCCCCCCCCCCCCCCCCCCCCCCCCCCCCCCCCCCCC [tetratetracontane] here?
The melting point was 88 °C.

For Cn1cnc2c1c(=O)[nH]c(=O)n2C [theobromine], which melting point is on record?
Its melting point is 348 °C.

With Cn1c(=O)c2[nH]cnc2n(C)c1=O [theophylline] as the compound, how does the melting point read?
Its melting point is 270 °C.

For CC(=O)S [thioacetic acid], which melting point is on record?
The melting point was -17 °C.

Which melting point does the source give for O=C(S)c1ccccc1 [thiobenzoic acid] here?
Its melting point is 17 °C.

For O=S(=O)(Cl)c1cccs1 [thiophene-2-sulfonyl chloride], which melting point is on record?
Its melting point is 30 °C.

Which melting point does the source give for Sc1ccccc1 [thiophenol] here?
Its melting point is -15 °C.

Which melting point does the source give for Cc1c[nH]c(=O)[nH]c1=O [thymine] here?
The melting point was 316 °C.

For Cc1c(N=C=O)cccc1N=C=O [toluene-2,6-diisocyanate], which melting point is on record?
Its melting point is 13 °C.

For C/C=C/C=C/CO [trans,trans-2,4-hexadien-1-ol], which melting point is on record?
Its melting point is 31 °C.

For Cl/C=C/Cl [trans-1,2-dichloroethylene], which melting point is on record?
The melting point was -50 °C.

For C/C=C/c1ccccc1 [trans-1-phenyl-1-propene], which melting point is on record?
The melting point was -29 °C.

Which melting point does the source give for O=C(O)/C=C/c1ccc(Cl)cc1Cl [trans-2,4-dichlorocinnamic acid] here?
The melting point was 234 °C.

With O=C(O)/C=C/c1ccc(F)cc1F [trans-2,4-difluorocinnamic acid] as the compound, how does the melting point read?
The melting point was 217 °C.

Which melting point does the source give for C[C@@H]1CN[C@@H](C)CN1 [trans-2,5-dimethylpiperazine] here?
Its melting point is 117 °C.

With C/C=C/CCC [trans-2-hexene] as the compound, how does the melting point read?
Its melting point is -99 °C.

With CC/C=C/CC [trans-3-hexene] as the compound, how does the melting point read?
Its melting point is -113 °C.

For COc1ccc(C(=O)C=C(C)c2ccc(OC)cc2)cc1 [trans-4,4'-Dimethoxy-beta-methylchalcone], which melting point is on record?
The melting point was 87 °C.

With O=C(O)/C=C/c1ccc(C(F)(F)F)cc1 [trans-4-(trifluoromethyl)cinnamic acid] as the compound, how does the melting point read?
The melting point was 232 °C.

With C/C=C/c1ccc(OC)cc1 [trans-anethole] [listing 1 of 2 here] as the compound, how does the melting point read?
The melting point was 22 °C.

For C/C=C/c1ccc(OC)cc1 [trans-anethole] [listing 2 of 2 here], which melting point is on record?
Its melting point is 23 °C.

With O=C(/C=C/c1ccccc1)c1ccccc1 [trans-chalcone] as the compound, how does the melting point read?
Its melting point is 56 °C.

For O=C(O)/C=C/c1ccccc1 [trans-cinnamic_acid], which melting point is on record?
The melting point was 133 °C.

Which melting point does the source give for C/C=C/C(=O)O [trans-crotonic acid] here?
The melting point was 72 °C.

Which melting point does the source give for C(=C\c1ccccc1)/c1ccccc1 [trans-stilbene] here?
The melting point was 124 °C.

With c1ccc2c(P(c3cccc4ccccc34)c3cccc4ccccc34)cccc2c1 [tri(1-naphthyl)phosphine] as the compound, how does the melting point read?
Its melting point is 267 °C.

Which melting point does the source give for CCCCP(=O)(CCCC)CCCC [tri-n-butylphosphine oxide] here?
The melting point was 67 °C.

For CCCCCCCCCCCCN(CCCCCCCCCCCC)CCCCCCCCCCCC [tri-n-dodecylamine], which melting point is on record?
Its melting point is 15 °C.

For CCCCCCCCP(=O)(CCCCCCCC)CCCCCCCC [tri-n-octylphosphine oxide], which melting point is on record?
The melting point was 55 °C.

Which melting point does the source give for CC(=O)OCC(COC(C)=O)OC(C)=O [triacetin] here?
The melting point was 3 °C.

With O=C\1\C=C5/[C@@](/C=C/1)(C)[C@]2(F)[C@H]([C@H]3[C@](C[C@@H]2O)([C@@]4(OC(O[C@@H]4C3)(C)C)C(=O)CO)C)CC5 [triamcinolone acetonide] as the compound, how does the melting point read?
The melting point was 293 °C.

For Cc1nnc2n1-c1ccc(Cl)cc1C(c1ccccc1Cl)=NC2 [triazolam], which melting point is on record?
Its melting point is 234 °C.

Which melting point does the source give for c1ccc(CN(Cc2ccccc2)Cc2ccccc2)cc1 [tribenzylamine] here?
The melting point was 93 °C.

With O=C(O)CC(CC(=O)O)C(=O)O [tricarballylic acid] as the compound, how does the melting point read?
The melting point was 160 °C.

Which melting point does the source give for O=C(O)C(Cl)(Cl)Cl [trichloroacetic acid] here?
Its melting point is 57.5 °C.

With ClC=C(Cl)Cl [trichloroethylene] as the compound, how does the melting point read?
The melting point was -85 °C.

With ClC(Cl)Cl [trichloromethane] as the compound, how does the melting point read?
Its melting point is -63 °C.

— the Bradley open melting point set (2014)
